Among the test systems are 786-0 renal; A498 renal; K-562 leukemia; NCI-H226 lung; OVCAR-4 ovarian; OVCAR-5 ovarian; SK-OV-3 ovarian; SR leukemia; SW-620 colon; T-47D breast; TK-10 renal; U251 CNS; UACC-257 melanoma.
Assay in all cases: growth of human tumour cells (NCI), 48 h

Values joined by “and” are separate entries in the source; they are usually repeats but may differ in a detail not shown here. Equal values may be shown once.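 A five-concentration, 48-hour dose response in 96-well plates underlies each endpoint, interpolated linearly between surrounding concentrations. GI50 = concentration required for 50% inhibition of growth. TGI marks complete inhibition of growth.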

Turning to `O=S1(=O)CCN(Cc2ccccc2)/C1=N\S(=O)(=O)c1ccc(Cl)cc1`, the TGI with 786-0 renal was 34.5 µM; in the assay on A498 renal, 73.5 µM; in the assay with K-562 leukemia it was > 100 µM; with NCI-H226 lung, 34.4 µM; with OVCAR-4 ovarian it was 36.2 µM; in the assay with OVCAR-5 ovarian it was 33.4 µM. The TGI in the assay with SK-OV-3 ovarian is > 100 µM; in the assay with SR leukemia, 59.9 µM; in the assay on SW-620 colon, 36.7 µM; in the assay on T-47D breast it was 39.5 µM; in the assay with TK-10 renal, 31 µM; in the assay on U251 CNS, 33.5 µM. The TGI with UACC-257 melanoma was 35.7 µM.

As to `CC(C)CC1c2[nH]c3ccccc3c2C[C@H]2C(=O)NC(CCC(=O)OC(C)(C)C)C(=O)N12` (some centres not stated), the TGI in the assay with 786-0 renal, with A498 renal, in the assay with K-562 leukemia, with NCI-H226 lung, in the assay on OVCAR-4 ovarian and in the assay with OVCAR-5 ovarian was > 100 µM each time. For the same molecule, the TGI was > 100 µM with SK-OV-3 ovarian; 65.1 µM in the assay with SR leukemia; > 100 µM in the assay with SW-620 colon; 49.7 µM in the assay with T-47D breast; 74 µM in the assay on TK-10 renal; > 100 µM in the assay with U251 CNS. This molecule gave a TGI with UACC-257 melanoma of 66 µM.

`CN(C)CCO/N=C1/C=C2CC[C@H]3[C@@H]4CC[C@H](O)[C@@]4(C)CC[C@@H]3[C@@]2(C)CC1`: the TGI in the assay on 786-0 renal is 27.9 µM; in the assay on A498 renal, 33.7 µM; in the assay with K-562 leukemia, 56.8 µM; in the assay with NCI-H226 lung it was 8.87 µM; with OVCAR-5 ovarian it was > 100 µM; in the assay with SK-OV-3 ovarian, 44.4 µM. Also, the TGI came out at 19.6 µM in the assay on SR leukemia; 36.1 µM with SW-620 colon; 97.9 µM with T-47D breast; 28.6 µM in the assay with TK-10 renal; 27.5 µM with U251 CNS; 30.2 µM in the assay on UACC-257 melanoma.

For `Cn1c2nc3ccccc3c-2cc2ccccc21`, the TGI was > 100 µM in the assay on 786-0 renal; 17.1 µM and 43.5 µM in the assay with A498 renal; > 100 µM and 39.7 µM with K-562 leukemia; 19.3 µM and 31.5 µM in the assay with NCI-H226 lung; 19 µM and 26.2 µM with OVCAR-4 ovarian; 36.9 µM and 40.9 µM with OVCAR-5 ovarian. Further, the TGI was > 100 µM in the assay with SK-OV-3 ovarian; 7.25 µM and 10.7 µM in the assay with SR leukemia; > 48.7 µM and 39 µM in the assay with SW-620 colon; > 100 µM in the assay with T-47D breast; 70.3 µM and > 100 µM in the assay with TK-10 renal; > 53.5 µM and 32.4 µM in the assay on U251 CNS. The TGI with UACC-257 melanoma is 35.5 µM and 44 µM. The GI50 is 5.12 µM and 18.4 µM in the assay with A498 renal; 3.46 µM and 11.2 µM in the assay on NCI-H226 lung; 3.81 µM and 10.7 µM in the assay on OVCAR-4 ovarian; 4.12 µM and 11.4 µM in the assay on OVCAR-5 ovarian; 7.63 µM and 31 µM in the assay on TK-10 renal; 4.17 µM and 8.75 µM in the assay with U251 CNS. The GI50 in the assay on UACC-257 melanoma is 3.91 µM and 8.6 µM.

Turning to `[N-]=[N+]=Nc1ccc2c(c1)Sc1ccccc1N2CCCCCl`, the TGI in the assay on 786-0 renal, in the assay on A498 renal, with K-562 leukemia, in the assay on NCI-H226 lung, in the assay with OVCAR-4 ovarian and in the assay with OVCAR-5 ovarian was > 100 µM in each case. Moreover, the TGI in the assay with SK-OV-3 ovarian, in the assay on SR leukemia, with SW-620 colon, in the assay with T-47D breast, in the assay with TK-10 renal and in the assay on U251 CNS was > 100 µM throughout. Besides, the TGI in the assay on UACC-257 melanoma was > 100 µM.

Take `COC12C=CC(CC1)C1C(=O)c3c(C)c(C)n(C)c3C(=O)C12` (configuration not stated): the TGI in the assay with 786-0 renal, with A498 renal, in the assay on K-562 leukemia, in the assay with NCI-H226 lung, with OVCAR-5 ovarian and in the assay on SK-OV-3 ovarian was > 100 µM each time. Further, the TGI in the assay on SR leukemia, in the assay with SW-620 colon, with T-47D breast, in the assay with TK-10 renal, with U251 CNS and in the assay with UACC-257 melanoma was > 100 µM throughout.

On to `O=C1N=C(c2ccccc2)O/C1=C\c1ccccc1`, for which the TGI with 786-0 renal, in the assay on A498 renal, in the assay with NCI-H226 lung, with OVCAR-4 ovarian, in the assay on OVCAR-5 ovarian and in the assay with SK-OV-3 ovarian was > 100 µM each time. Besides, the TGI in the assay with SR leukemia, with SW-620 colon, in the assay on T-47D breast, with TK-10 renal, in the assay on U251 CNS and with UACC-257 melanoma was > 100 µM each time.

As to `CCOC(=O)c1ccc(C(=O)/C(C#N)=C2\CCCN2)[nH]1`, the TGI in the assay with 786-0 renal, in the assay on A498 renal, in the assay on K-562 leukemia, in the assay with NCI-H226 lung, in the assay with OVCAR-4 ovarian and in the assay with OVCAR-5 ovarian was > 100 µM throughout. The TGI with SK-OV-3 ovarian was > 100 µM; in the assay with SR leukemia it was 84.5 µM; in the assay on SW-620 colon, > 100 µM; in the assay with T-47D breast, > 100 µM; in the assay with U251 CNS, > 100 µM; in the assay with UACC-257 melanoma, > 100 µM.

In the case of `CCC(=O)COc1ccc(NC(NC(=O)C(C(F)(F)F)C(F)(F)F)(C(F)(F)F)C(F)(F)F)cc1`, the TGI in the assay with 786-0 renal was 61.7 µM; in the assay on A498 renal, > 100 µM; with NCI-H226 lung, 47.6 µM; with OVCAR-4 ovarian, > 100 µM; in the assay with OVCAR-5 ovarian, > 100 µM; in the assay on SK-OV-3 ovarian, > 100 µM. For the same molecule, the TGI in the assay on SR leukemia is 37.1 µM; with SW-620 colon, > 100 µM; in the assay on T-47D breast, 68.8 µM; with TK-10 renal it was > 100 µM; with U251 CNS it was > 100 µM; in the assay with UACC-257 melanoma, > 100 µM.

On to `CC(=O)OC1COC(n2c(N)c(C#N)c(C)c(C#N)c2=S)C(OC(C)=O)C1OC(C)=O` (configuration not stated), for which the TGI in the assay with 786-0 renal, in the assay with A498 renal, in the assay with K-562 leukemia, with NCI-H226 lung, in the assay on OVCAR-5 ovarian and in the assay on SK-OV-3 ovarian was > 100 µM throughout. In addition, the TGI in the assay with SR leukemia, in the assay with SW-620 colon, in the assay with T-47D breast, in the assay with TK-10 renal and in the assay on UACC-257 melanoma was > 100 µM throughout.

Turning to `CCOC(=O)c1nc2ccc(C(F)(F)F)cc2nc1Oc1ccc(F)cc1`, the TGI in the assay with 786-0 renal, with A498 renal, in the assay on K-562 leukemia, in the assay on NCI-H226 lung, with OVCAR-4 ovarian and in the assay on SK-OV-3 ovarian was > 100 µM throughout. Further, the TGI in the assay with SR leukemia, in the assay on SW-620 colon, with T-47D breast, in the assay with TK-10 renal, in the assay on U251 CNS and with UACC-257 melanoma was > 100 µM each time.
